Measured values taken from patent US11787769B2 (priority 2019, dated 2023).
Where two headings read alike, the source gives them in different places.

What was measured:
Assay in all cases: microbe, parasite or virus in culture
[1] = test system: influenza A virus (HA of H5N1, Goose/Qinghai/59/05); assay type: cell-based; details: for inhibition at 12.5 µM: H5N1, A549, 12.5 μM, read-out: H5N1 pseudotype assay % inhibition at 12.5 μM
[2] = test system: PR8-PB2-Gluc, influenza A/Puerto Rico/8/1934 (PR8) H1N1 virus; assay type: cell-based; details: read-out: EC50 (nM), antiviral activity in the infectious IAV
PR8-NS1-Gluc virus = assay type: cell-based, influenza A PR8
[3] = Influenza A virus, H5N1, A549, read-out: H5N1 pseudotype assay EC50 (μM)
[4] = read-out: H5N1 pseudotype assay EC50
[5] = Influenza A virus, PR8, MDCK, 48 h

Structure (SMILES): CC(C)N1CCC(N(Cc2ccccc2)C(=O)c2c(Cl)cccc2Cl)CC1 [Compound 10, N-Benzyl-2,6-dichloro-N-(1-isopropylpiperidin-4-yl)benzamide]
- H5N1 pseudotype assay % inhibition at 12.5 μM ([1]; 12.5 μM): 64%
- inhibition at 12.5 µM ([1]; Influenza A virus): 67%

Structure (SMILES): CC(C)N1CC[C@@H](NC(=O)c2ccc(C(F)(F)F)cc2Cl)[C@@H](F)C1 [Compound 34, 2-Chloro-N-((3S,4R)-3-fluoro-1-isopropylpiperidin-4-yl)-4-(trifluoromethyl)benzamide]
- inhibition at 12.5 µM ([1]; Influenza A virus): 99%
- EC50 [1, 3]: 0.67 ± 0.2 µM
- EC50 ([2]; Influenza A virus, MDCK): 195 ± 49 nM

Structure (SMILES): CC(C)N1CC[C@H](NC(=O)c2ccc(C(F)(F)F)cc2Cl)[C@H](F)C1 [Compound 32, 2-Chloro-N-((3R,45)-3-fluoro-1-isopropylpiperidin-4-yl)-4-(trifluoromethyl)benzamide]
- H5N1 pseudotype assay % inhibition at 12.5 μM ([1]; 12.5 μM): 99%
- EC50 [1, 4]: 0.63 ± 0.48 µM
- EC50 [2]: 263 ± 33 nM

Structure (SMILES): CC(C)N1CCCC(NC(=O)c2c(Cl)cccc2Cl)CC1 (centres unmarked) [Compound 23, 2,6-Dichloro-N-(1-isopropylazepan-4-yl)benzamide]
- inhibition at 12.5 µM ([1]; Influenza A virus): 71%

Structure (SMILES): CC(C)N1CCC(NC(=O)c2c(Cl)cccc2Cl)C(F)(F)C1 (centres unmarked) [Compound 30, 2,6-Dichloro-N-(3,3-difluoro-1-isopropylpiperidin-4-yl)benzamide]
- inhibition at 12.5 µM ([1]; Influenza A virus): 77%

Structure (SMILES): CC(C)CN1CCC(NC(=O)c2c(Cl)cccc2Cl)CC1 [Compound 14, 2,6-Dichloro-N-(1-isobutylpiperidin-4-yl)benzamide]
- inhibition at 12.5 µM ([1]; Influenza A virus): 89%
- EC50 [1, 3]: 2.15 ± 0.64 µM
- EC50 ([2]; Influenza A virus, MDCK): 852 ± 79 nM

Structure (SMILES): CCC(CC)O[C@@H]1C=C(C(=O)O)C[C@H](N)[C@H]1NC(C)=O [Oseltamivir carboxylate, reference compound]
- EC50 ([2]; Influenza A virus, MDCK): 181 ± 69 nM
- EC30 (PR8-NS1-Gluc virus): 0.16 µM
- EC40 (PR8-NS1-Gluc virus): 0.229 µM
- EC60 (PR8-NS1-Gluc virus): 0.441 µM
- EC70 (PR8-NS1-Gluc virus): 0.629 µM
- EC80 (PR8-NS1-Gluc virus): 0.972 µM
- EC50 (PR8-NS1-Gluc virus; [5]): 0.318 µM
- EC90 (PR8-NS1-Gluc virus; [5]): 1.87 µM

Structure (SMILES): CC(C)N1CCC(NC(=O)c2ccccc2C(F)(F)F)CC1 [Compound 3, N-(1-Isopropylpiperidin-4-yl)-2-(trifluoromethyl)benzamide]
- inhibition at 12.5 µM ([1]; Influenza A virus): 31%

Structure (SMILES): CO[C@H]1CN(C(C)C)CC[C@H]1NC(=O)c1c(Cl)cccc1Cl [Compound 28, 2,6-Dichloro-N-((3S,4R)-1-isopropyl-3-methoxypiperidin-4-yl)benzamide]
- inhibition at 12.5 µM ([1]; Influenza A virus): 64%

Structure (SMILES): CC(C)N1CCC(NC(=O)c2c(Cl)cccc2Cl)C1 (centres unmarked) [Compound 22, 2,6-Dichloro-N-(1-isopropylpyrrolidin-3-yl)benzamide]
- inhibition at 12.5 µM ([1]; Influenza A virus): 11%

Structure (SMILES): CC(C)N1CCC(NC(=O)c2ccc([N+](=O)[O-])cc2Cl)CC1 [Compound 4, 2-Chloro-N-(1-isopropylpiperidin-4-yl)-4-nitrobenzamide]
- inhibition at 12.5 µM ([1]; Influenza A virus): 97%
- EC50 [1, 3]: 0.72 ± 0.09 µM
- EC50 ([2]; Influenza A virus, MDCK): 211 ± 43 nM

Structure (SMILES): CC(C)N1CC2C(C1)C2NC(=O)c1c(Cl)cccc1Cl (centres unmarked) [Compound 24, 2,6-Dichloro-N-(3-isopropyl-3-azabicyclo[3. 1.0]hexan-6-yl)benzamide]
- inhibition at 12.5 µM ([1]; Influenza A virus): 61%

Structure (SMILES): CC(C)N1CCC(N(C)C(=O)c2c(Cl)cccc2Cl)CC1 [Compound 9, 2,6-Dichloro-N-(1-isopropylpiperidin-4-yl)-N-methylbenzamide]
- inhibition at 12.5 µM ([1]; Influenza A virus): 91%
- EC50 [1, 3]: 4.45 µM
- EC50 ([2]; Influenza A virus, MDCK): 724 ± 36 nM

Structure (SMILES): CC(C)N1CCC2(CC1)OCCN2C(=O)c1c(Cl)cccc1Cl [Compound 26, (2,6-Dichlorophenyl)-(8-isopropyl-1-oxa-4,8-diazaspiro[4.5]decan-4-yl)methanone]
- inhibition at 12.5 µM ([1]; Influenza A virus): 19%

Structure (SMILES): CC(C)N1CCC(C)(NC(=O)c2c(Cl)cccc2Cl)CC1 [Compound 27, 2,6-Dichloro-N-(1-isopropyl-4-methylpiperidin-4-yl)benzamide]
- inhibition at 12.5 µM ([1]; Influenza A virus): 75%

Structure (SMILES): O=C(NC1CCN(C2CC2)CC1)c1c(Cl)cccc1Cl [Compound 11, 2,6-Dichloro-N-(1-cyclopropylpiperidin-4-yl)benzamide]
- inhibition at 12.5 µM ([1]; Influenza A virus): 33%

Structure (SMILES): CC(C)N1CC[C@@H](NC(=O)c2ccc(C(F)(F)F)cc2Cl)[C@H](F)C1 [Compound 33, 2-Chloro-N-((3R,4R)-3-fluoro-1-isopropylpiperidin-4-yl)-4-(trifluoromethyl)benzamide]
- inhibition at 12.5 µM ([1]; Influenza A virus): 87%
- EC50 [1, 3]: 2.93 ± 0.3 µM
- EC50 ([2]; Influenza A virus, MDCK): 989 ± 323 nM

Structure (SMILES): CC(C)CN1CCC(NC(=O)c2ccc(C(F)(F)F)cc2Cl)CC1 [Compound 17, 2-Chloro-N-(1-isobutylpiperidin-4-yl)-4-(trifluoromethyl)benzamide]
- inhibition at 12.5 µM ([1]; Influenza A virus): 73%

Structure (SMILES): CC(C)N1CCN(C(=O)c2c(Cl)cccc2Cl)CC1 [Compound 25, (2,6-Dichlorophenyl)-(4-isopropylpiperazin-l-yl)methanone]
- H5N1 pseudotype assay % inhibition at 12.5 μM [1]: 4%

Structure (SMILES): CC(C)N1CCC(NC(=O)c2c(Cl)cccc2C(F)(F)F)CC1 [Compound 2, 2-Chloro-N-(1-isopropylpiperidin-4-yl)-6-(trifluoromethyl)benzamide]
- inhibition at 12.5 µM ([1]; Influenza A virus): 85%
- EC50 [1, 3]: 5.62 ± 2.16 µM
- EC50 ([2]; Influenza A virus, MDCK): 587 ± 140 nM

Structure (SMILES): O=C(NC1CCN(C2COC2)CC1)c1c(Cl)cccc1Cl [Compound 15, 2,6-Dichloro-N-(1-(oxetan-3-yl)piperidin-4-yl)benzamide]
- inhibition at 12.5 µM ([1]; Influenza A virus): 7%

Structure (SMILES): CC(C)N1CCC(NC(=O)c2ncc(C(F)(F)F)cc2Cl)CC1 [Compound 7, 3-Chloro-N-(1-isopropylpiperidin-4-yl)-5-(trifluoromethyl)picolinamide]
- inhibition at 12.5 µM ([1]; Influenza A virus): 76%

Structure (SMILES): CC(C)N1CC[C@H](NC(=O)c2ccc(C(F)(F)F)cc2Cl)[C@@H](F)C1 [Compound 31, 2-Chloro-N-((3S,45)-3-fluoro-1-isopropylpiperidin-4-yl)-4-(trifluoromethyl)benzamide]
- H5N1 pseudotype assay % inhibition at 12.5 μM ([1]; 12.5 μM): 93%
- EC50 [1, 4]: 1.16 ± 0.67 µM
- EC50 [2]: 324 ± 105 nM

Structure (SMILES): O=C(NC1CCN(C2CCC2)CC1)c1c(Cl)cccc1Cl [Compound 12, 2,6-Dichloro-N-(1-cyclobutylpiperidin-4-yl)benzamide]
- inhibition at 12.5 µM ([1]; Influenza A virus): 76%

Structure (SMILES): CC(C)N1CCC(NC(=O)c2ncc(Cl)cc2Cl)CC1 [Compound 6, 3,5-Dichloro-N-(1-isopropylpiperidin-4-yl)picolinamide]
- inhibition at 12.5 µM ([1]; Influenza A virus): 39%

Structure (SMILES): CC(C)N1CCC(NC(=O)c2ccc(C(F)(F)F)cc2Cl)CC1 [Compound 5, 2-Chloro-N-(1-isopropylpiperidin-4-yl)-4-(trifluoromethyl)benzamide]
- inhibition at 12.5 µM ([1]; Influenza A virus): 99%
- EC50 [1, 3]: 0.36 ± 0.05 µM
- EC50 ([2]; Influenza A virus, MDCK): 380 ± 182 nM

Structure (SMILES): CC(C)N1CC[C@H](NC(=O)c2c(Cl)cccc2Cl)[C@@H](F)C1 [Compound 29, 2,6-Dichloro-N-((3S,45)-3-fluoro-1-isopropylpiperidin-4-yl)benzamide]
- H5N1 pseudotype assay % inhibition at 12.5 μM ([1]; 12.5 μM): 87%
- EC50 [1, 4]: 1.81 ± 0.45 µM
- EC50 [2]: 885 ± 50 nM

Structure (SMILES): CC(C)N1CCC(NS(=O)(=O)c2ccc(Cl)cc2Cl)CC1 [Compound 19, 2,4-Dichloro-N-(1-isopropylpiperidin-4-yl)benzenesulfonamide]
- inhibition at 12.5 µM ([1]; Influenza A virus): 1%

Structure (SMILES): O=C(NC1CCN(C2CCCCC2)CC1)c1ccc(C(F)(F)F)cc1Cl [Compound 18, 2-Chloro-N-(1-cyclohexylpiperidin-4-yl)-4-(trifluoromethyl)benzamide]
- inhibition at 12.5 µM ([1]; Influenza A virus): 98%
- EC50 [1, 3]: 0.91 ± 0.25 µM
- EC50 ([2]; Influenza A virus, MDCK): 505 ± 174 nM

Structure (SMILES): CC(C)N1CCC(CNC(=O)c2c(Cl)cccc2Cl)CC1 [Compound 21, 2,6-Dichloro-N-((1-isopropylpiperidin-4-yl)methyl)benzamide]
- inhibition at 12.5 µM ([1]; Influenza A virus): 23%

Structure (SMILES): CC(C)N1CCC(NC(=O)c2ncccc2Cl)CC1 [Compound 8, 3-Chloro-N-(1-isopropylpiperidin-4-yl)picolinamide]
- inhibition at 12.5 µM ([1]; Influenza A virus): 40%

Structure (SMILES): CC(C)N1CCC(NC(=O)c2c(Cl)cccc2Cl)CC1 [Compound 1, 2,6-Dichloro-N-(1-isopropylpiperidin-4-yl)benzamide]
- inhibition at 12.5 µM ([1]; Influenza A virus): 90%
- EC50 [1, 3]: 3.04 ± 1.13 µM
- EC50 ([2]; Influenza A virus, MDCK): 272 ± 37 nM

Structure (SMILES): CC(C)N1CCCC(NC(=O)c2c(Cl)cccc2Cl)C1 (centres unmarked) [Compound 20, 2,6-Dichloro-N-(1-isopropylpiperidin-3-yl)benzamide]
- inhibition at 12.5 µM ([1]; Influenza A virus): 14%

Structure (SMILES): CC(C)(C)N1CCC(NC(=O)c2c(Cl)cccc2Cl)CC1 [Compound 13, N-(1-(tert-Butyl)piperidin-4-yl)-2,6-dichlorobenzamide]
- inhibition at 12.5 µM ([1]; Influenza A virus): 99%
- EC50 [1, 3]: 0.51 ± 0.04 µM
- EC50 ([2]; Influenza A virus, MDCK): 113 ± 18 nM
